Laboratory results reported in patent US10029996B2, “Class of cyano-substituted asymmetric cyanine dyes, synthesizing method and application thereof” (DALIAN UNIVERSITY OF TECHNOLOGY, priority 2013, dated 2018).

Columns and labels:
CT DNA [1] = experiment: Absorption and fluorescence emission spectra in the absence and presence of DNA in buffer; type: physicochemical; details: 2 μM in Tris-HCl buffer, absence and presence of saturated CT DNA; for maximum emission wavelength: excitation 550 nm
Procedure: 2 μM solutions of compounds C, D, and E in Tris-HCl (10 mM, pH=7.4, same below) buffer were be added into the cuvettes and determined its absorption respectively. The exited wavelength of the fluorescence spectra was 550 nm for all compounds. A saturated amount of CT DNA was added into the above solution, then the solution was determined its absorption respectively. The exited wavelength of the fluorescence spectra was 550 nm for all compounds. The equipments used are a UV-Vis spectrophotometer (Hp8453) and a spectrofluorophotometer (PTI-700). FIGS. 2, 3, and 4 are the absorption and fluorescence emission spectra of compounds C, D, and E in the absence and presence of DNA respectively in buffer solution respectively. […] Therefore, in confocal fluorescence image tests of compounds, the exited wavelength is selected 559 nm and the collected emission wavelength was 575-625 nm.

CT DNA [2] = experiment: Fluorescence quantum yield in the presence of DNA; type: physicochemical; details: 1 μM in Tris-HCl buffer, saturated DNA; Rhodamine B as standard; mean of triplicate
Procedure: A saturated amount of CT DNA was added into the 1 μM compound C solution in Tris-HCl buffer to keep a maximum absorbance less than 0.1 as determined by a UV-Vis Spectrophotometer. Fluorescence intensities are measured at selected excitation wavelengths of 545 nm, 550 nm and 555 nm, respectively. For each compound, the determination is made in triplicate, the fluorescence quantum yield of each determination is calculated, and the mean value is taken. Using Rhodamine B as the standard (ΦF=0.97, methanol, 15° C.), the calculated fluorescence quantum yields in buffer solution of compound C in the presence of DNA is 0.73. The equipments used are a UV-Vis spectrophotometer (Hp8453) and a spectrofluorophotometer (PTI-700).
A saturated amount of DNA was added into the 1 μM reference compound M1 solution in Tris-HCl buffer to keep a maximum absorbance less than 0.1 as determined by a UV-Vis Spectrophotometer. Fluorescence intensities are measured at selected excitation wavelengths of 585 nm, 590 nm and 595 nm, respectively. For each compound, the determination is made in triplicate, the fluorescence quantum yield of each determination is calculated, and the mean value is taken. Using Rhodamine B as the standard (ΦF=0.97, methanol, 15° C.), the calculated fluorescence quantum yields in buffer solution of reference compound M1 in the presence of DNA is 0.16. […]

[3] = Photofading under iodine-tungsten lamp irradiation in Tris-HCl buffer; type: physicochemical; details: 5×10^−6 M in Tris-HCl 10 mM pH 7.4; 500 W iodine-tungsten lamp, 20 cm; after 6 h of radiation
Procedure: 5×10^−6M solutions of compounds C, D, E and reference compound M1 in Tris-HCl (10 mM, pH=7.4, same below) buffer were be sealed into the cuvettes respectively. To absorb short wavelength light (<400 nm), a trap of glass containing 50 g/L NaNO2 was set up between the cells and the lamp. In the other hand, NaNO2 solution can be used as a cold trap to keep the sample at room temperature. After the absorption of samples were monitored, solutions of the samples were irradiated with a 500 W iodine-tungsten lamp. The distance between the cells and the lamp was 20 cm. The irreversible bleaching of the dyes at the absorption peak was monitored as a function of time at 1 hour intervals. The equipment used is a UV-Vis spectrophotometer Lambda 8453.

living cells = experiment: MTT cytotoxicity assay in living cells; type: cell-based; details: 6 h, serial concentrations 0, 1, 3, 5 μM
Procedure: The Compounds C, D, E and reference compound M1 at serial concentrations (0, 1, 3, and 5 μM) were added to cells counted in a confocal microscope dish for 6 h. Then MTT tetrazolium solution (100 μL of 0.5 mg/ml in PBS) was added to each well, and the cells further incubated for 2 h. Excess MTT tetrazolium solution was then carefully removed and the colored formazan was dissolved in dimethyl sulfoxide (DMSO). The absorbance was measured at 490 nm using a microplate reader to measure the toxicity of compound.

MCF7 cells [4] = experiment: Fluorescence imaging of live cells stained with dye; type: cell-based, human; details: 45 min, compound D 2 μM, M1 3 μM, confocal microscopy
Procedure: MCF7 cells (human breast adenocarcinoma cell line) were cultured in DEME medium supplemented with 10% fetal bovine serum at 37° C. in an atmosphere containing 5% CO2 for 24 h. For live cell imaging, compound D (2 μM) or reference compound M1 (3 μM) was added to cells for 45 min and washed with PBS (phosphate-buffered saline) three times. After replacement of the medium, cells were imaged using a confocal fluorescence microscope. […] The confocal laser scanning microscope is Olympus FV1000.

MCF7 cells [5] = experiment: Colocalization fluorescence imaging with commercial nucleic acid stain SYTO9; type: cell-based, human; details: compound E 2.0 μM 45 min after SYTO9 3.0 μM 45 min; λex=559 nm, λem=575-625 nm
Procedure: The cells were cultured as shown example 10, were first cultured with 3.0 μM of available commercial nucleic acid stain SYTO9 for 45 min, and then washed with PBS three times. Cells were then incubated with compound E (2.0 μM) for 45 min, and then washed with PBS three times. After replacement of DEME medium, cells were imaged using confocal fluorescence microscope.
FIG. 6a is the fluorescence image of SYTO 9 (λex=488 nm, λem=500 nm to 550 nm) and FIG. 6b is the fluorescence image of compound E (λex=559 nm, λem=575 nm to 625 nm). […] The equipment used is an Olympus FV1000 confocal laser scanning microscope.

CT DNA [6] = details: methanol, 15° C.; cited from earlier work

Row | SMILES | maximum absorption wavelength (CT DNA [1]) | maximum emission wavelength (CT DNA [1]) | fluorescence quantum yield in the presence of DNA (CT DNA [2]) | optical density remaining after radiation (photostability) [3] | cytotoxicity in high concentration relative to M1 (living cells) | cytotoxicity in low concentrations (living cells) | staining pattern in live cells (MCF7 cells [4]) | subcellular regions stained (colocalization with SYTO9) (MCF7 cells [5]) | fluorescence quantum yield of standard (ΦF) (CT DNA [6])
1 | CC[n+]1ccc(/C=C/C(C#N)=C2/Sc3ccccc3N2C)c2ccccc21.[I-] [Compound C] | about 545 nm | about 610 nm | 0.73 | 90% | less cytotoxic than reference compound M1 | low cytotoxicity | – | – | –
2 | CN1/C(=C(C#N)\C=C\c2cc[n+](CCO)c3ccccc23)Sc2cc(Cl)ccc21.Cl [Compound D] | about 545 nm | about 610 nm | – | 90% | less cytotoxic than reference compound M1 | low cytotoxicity | clear nucleolar staining as well as faint nucleus staining | – | –
3 | C=CCCN1/C(=C(C#N)\C=C\c2cc[n+](CC)c3cc(OC)ccc23)Sc2ccccc21.[I-] [Compound E] | about 545 nm | about 610 nm | – | 90% | – | – | – | nucleus and nucleolus | –
4 | CC[n+]1ccc(/C=C/C=C2/Sc3ccccc3N2C)c2ccccc21.[I-] [Compound M1, reference compound] | – | – | 0.16 | ~0% | – | low cytotoxicity | clear nucleolar staining as well as faint nucleus staining | – | –
5 | CCN(CC)c1ccc2c(-c3ccccc3C(=O)O)c3ccc(=[N+](CC)CC)cc-3oc2c1.[Cl-] [Rhodamine B] | – | – | – | – | – | – | – | – | 0.97
